As usually defined, the EC50 is the concentration needed to bring the measured effect to its halfway point.

Calls of active or inactive are those of the source. The rule behind the calls is not given here.

Results on 46 compounds are retold here after PubChem BioAssay AID844 (SRMLSC, 2007).

The subject of this assay is MRP1 cells, doxorubicin viability shift, 10 uM compound. Kind of assay: doxorubicin EC50 increase in MRP-1 cells, dose response, cell-based, doxorubicin EC50 shift (AID 844). Particulars: for EC50: measured here: doxorubicin EC50 with compound.

With `CCCOc1ccc(C(=O)Nc2ccc(N3CCN(C(C)=O)CC3)cc2)cc1`, the fold increase in Dox EC50 was 1.06 (inactive) and the EC50 was 5.75 µM.
The corresponding values for `O=C(CC(NC(=O)C(F)(F)F)c1ccccc1)Nc1nnc(CCc2ccccc2)s1` (configuration not stated) are 1.85 and 9.97 µM.
Turning to `O=C1C(Cc2cccc([N+](=O)[O-])c2)SC(=Nc2ccccc2)N1c1ccccc1` (configuration not stated), the fold increase in Dox EC50 was 0.73 (inactive) and the 50% effective concentration (EC50) stood at 3.94 µM.
The corresponding values for `CCOC(=O)C1=C(C)N=c2s/c(=C\c3ccc(OC(C)=O)cc3)c(=O)n2C1/C=C/c1ccccc1` (configuration not stated) are 0.34 (inactive) and 1.85 µM.
The matching figures for `COc1cccc(/C=N/NC(=O)CNC(=O)C2COc3ccccc3O2)c1O` (configuration not stated): 0.12 (inactive) and 0.637 µM.
The corresponding values for `O=C(NCc1ccccn1)c1cc(-c2ccc(-c3ccccc3)cc2)nc2ccccc12` are 0.57 (inactive) and 3.1 µM.
Turning to `Cc1cc2nc(/N=C(\N)NC(=O)N3c4ccccc4Sc4ccccc43)nc(C)c2cc1C`, the fold increase in Dox EC50 is 1.69 and the 50% effective concentration (EC50) is 9.15 µM.
The matching figures for `COCCOC(=O)c1c(C)oc2ccc(OCC=C(C)C)cc12`: 0.5 (inactive) and 2.69 µM.
The corresponding values for `C=CCSC1=NC(=O)/C(=C/c2cccs2)S1` are 1.13 (inactive) and 6.1 µM.
The matching figures for `Cc1ccc(NC(=O)Cc2csc(-c3ccccc3)n2)cc1F`: 1.22 (inactive) and 6.6 µM.
As to `O=C(Nc1cccnc1)C1CC(c2ccc(Cl)c(Cl)c2)=NO1` (configuration not stated), the fold increase in Dox EC50 is 1.32 (inactive) and the half-maximal effective concentration (EC50) is 7.13 µM.
The corresponding values for `Cc1ccccc1Cn1ccc(NC(=O)c2onc(C)c2Cl)n1` are 1.15 (inactive) and 6.24 µM.
The corresponding values for `COC(=O)CCc1c(C)[nH]c(C(=O)OCc2ccccc2)c1C` are 0.85 (inactive) and 4.57 µM.
The corresponding values for `CC(=O)Nc1nc(C)c(Oc2ccc(Cl)cc2Cl)c(=O)[nH]1` are 0.74 (inactive) and 4.01 µM.
Turning to `O=C(Nc1cccc([N+](=O)[O-])c1)c1[nH]ncc1Cl`, the fold increase in Dox EC50 was 0.54 (inactive) and the EC50 turned out to be 2.89 µM.
With `CCc1nnc(NC(=O)C(C)N2C(=O)C3C4C=CC(C4)C3C2=O)s1` (configuration not stated), the fold increase in Dox EC50 is 1.01 (inactive) and the EC50 amounted to 5.44 µM.
The matching figures for `N#Cc1c(-c2ccco2)nc(SCC(=O)Nc2cccc(Cl)c2)[nH]c1=O`: 1.33 (inactive) and 7.17 µM.
The corresponding values for `Cc1cc(C)c(NC(=O)c2sc3nc4c(cc3c2N)C(=O)CC(C)(C)C4)c(C)c1` are 0.7 (inactive) and 3.76 µM.
The corresponding values for `Cc1ccc(N2C(=O)C3C(c4ccccc4)(C2=O)C3(c2ccccc2)c2ccccc2)cc1` (configuration not stated) are 0.22 (inactive) and 1.16 µM.
On to `O=C(CCc1ccccc1)Nc1nnc(-c2ccc3c(c2)CCCC3)o1`, for which the fold increase in Dox EC50 is 0.25 (inactive) and the concentration for a half-maximal effect (EC50) is 1.36 µM.
The matching figures for `COc1ccc(Cl)cc1NC(=O)CSc1nnc(COc2ccccc2)n1N`: 0.86 (inactive) and 4.64 µM.
The matching figures for `Cc1nnc(NC(=O)COc2ccccc2)s1`: 1.25 (inactive) and 6.73 µM.
On to `Cc1cccc(CC2S/C(=N/c3ccccn3)NC2=O)c1` (configuration not stated), for which the fold increase in Dox EC50 was 1.15 (inactive) and the EC50 came to 6.22 µM.
In the case of `O=C(Nc1ccc(F)cc1)c1c(O)c2c(n(Cc3ccccc3)c1=O)CCCC2`, the fold increase in Dox EC50 was 1.31 (inactive) and the EC50 came to 7.07 µM.
The matching figures for `Cc1ccc(-c2cc(-c3ccccc3)no2)c(O)c1`: 0.59 (inactive) and 3.2 µM.
The matching figures for `O=C(CSc1ncn[nH]1)Nc1nnc(-c2ccccc2)s1`: 0.58 (inactive) and 3.12 µM.
Turning to `N#CCSc1nc2cc(C(=O)N3CCC(C(N)=O)CC3)ccc2c2nc3ccccc3n12`, the fold increase in Dox EC50 was 0.86 (inactive) and the EC50 was determined as 4.62 µM.
The corresponding values for `Cc1ccc(NC(=O)CCSc2nnnn2-c2ccc3c(c2)OCO3)cc1C` are 0.74 (inactive) and 3.98 µM.
The matching figures for `Cn1c(=O)c2c(nc(OCc3ccccc3)n2C)n(C)c1=O`: 0.7 (inactive) and 3.78 µM.
Regarding `Oc1c(C(c2cccs2)N2CCN(c3cccc(Cl)c3)CC2)sc2ncnn12` (configuration not stated), the fold increase in Dox EC50 is 0.68 (inactive) and the half-maximal effective concentration (EC50) is 3.68 µM.
The corresponding values for `Cc1nc2cc(-c3ccsc3-n3c(C)ccc3C)[nH]n2c(=O)c1Cl` are 0.74 (inactive) and 4 µM.
The matching figures for `S=C(NCc1ccccn1)Nc1ccccc1Cl`: 1.14 (inactive) and 6.15 µM.
The corresponding values for `C=CCc1c(C)nc(-c2ccccc2)nc1N/N=C/c1ccccc1` are 0.87 (inactive) and 4.7 µM.
With `O=C(Nc1ccn(Cc2ccccc2F)n1)c1ccc(COc2ccc(Cl)cc2Cl)o1`, the fold increase in Dox EC50 was 0.95 (inactive) and the concentration giving a half-maximal response (EC50) came out at 5.15 µM.
The corresponding values for `O=C(NCCN1C(=O)S/C(=C/c2ccccc2)C1=O)C1CCCN1C(=O)c1cccs1` (configuration not stated) are 0.61 (inactive) and 3.3 µM.
The matching figures for `Cc1nc(/N=C(\N)NC(=O)N2c3ccccc3Sc3ccccc32)nc2ccccc12`: 0.95 (inactive) and 5.12 µM.
On to `CCC(=O)N1CCN=C1SCc1ccc(F)cc1`, for which the fold increase in Dox EC50 is 0.75 (inactive) and the EC50 worked out at 4.07 µM.
The matching figures for `Cc1cc(C)n2nc(C(=O)Nc3nnc(C4CC4)s3)nc2n1`: 0.87 (inactive) and 4.7 µM.
The corresponding values for `O=C(CSc1nc2ccccc2o1)NCc1ccc2c(c1)OCO2` are 1.15 (inactive) and 6.23 µM.
The corresponding values for `Cc1nc(C)c(C(=O)NNS(=O)(=O)c2ccccc2)s1` are 0.83 (inactive) and 4.48 µM.
As for `CC(NC(=O)c1ccc(Br)cc1)c1ccc2c(c1)CCCC2` (configuration not stated), the fold increase in Dox EC50 is 1.36 (inactive) and the EC50 is 7.33 µM.
As for `CCOc1ccc(Cn2nnc(C(=O)NCCc3ccccc3)c2N)cc1`, the fold increase in Dox EC50 was 1.05 (inactive) and the EC50 worked out at 5.65 µM.
The matching figures for `c1ccc2c(c1)Nc1nccnc1S2`: 0.12 (inactive) and 0.637 µM.
The corresponding values for `CCC(C)Nc1ncnc2c1cnn2Cc1ccc(Cl)cc1` (configuration not stated) are 0.84 (inactive) and 4.55 µM.
The corresponding values for `O=C(Nc1ccn(Cc2c(F)c(F)cc(F)c2F)n1)c1ccc(COc2ccc(Cl)cc2Cl)o1` are 1.01 (inactive) and 5.45 µM.
`CC(CCc1ccccc1)NC(=O)CN1CCN(Cc2ccc(Cl)cc2)C1=O` (configuration not stated): the fold increase in Dox EC50 is 1.03 (inactive) and the EC50 is 5.58 µM.
